Values quoted from earlier work in US7479499B2 (Celgene Corporation, priority 2000, dated 2009).

Key:
[1] = system: metastatic colorectal cancer patients
[2] = system: patients with metastatic colorectal cancer; conditions: irinotecan monotherapy
[3] = second line treatment of colorectal cancer after 5FU

SMILES | complete responses ([1]; metastatic colorectal cancer) | partial responses, share of patients ([1]; metastatic colorectal cancer) | Expected (%) Grade 1-4 Abdominal colic/pain ([2]; abdominal colic/pain, grade 1-4) [%] | Expected (%) Grade 3-4 Abdominal colic/pain ([2]; abdominal colic/pain, grade 3-4) [%] | Expected (%) Grade 1-4 Asthenia ([2]; asthenia, grade 1-4) [%] | Expected (%) Grade 3-4 Asthenia ([2]; asthenia, grade 3-4) [%] | Expected (%) Grade 1-4 Constipation ([2]; constipation, grade 1-4) [%] | Expected (%) Grade 3-4 Constipation ([2]; constipation, grade 3-4) [%] | Expected (%) Grade 1-4 Diarrhea (Late) ([2]; late diarrhea, grade 1-4) [%] | Expected (%) Grade 3-4 Diarrhea (Late) ([2]; late diarrhea, grade 3-4) [%] | Expected (%) Grade 1-4 Nausea ([2]; nausea, grade 1-4) [%] | Expected (%) Grade 1-4 Vomiting ([2]; vomiting, grade 1-4) [%] | Expected (%) Grade 3-4 Vomiting ([2]; vomiting, grade 3-4) [%] | debilitating (Grade 3-4) late onset diarrhea, share of patients ([1]; late onset: more than 24 hours after administration) | complete response rate [1, 3] | median duration of response [1, 3] [months] | overall response rates [1, 3] | early onset diarrhea, frequency ([1]; within 24 hours of drug administration)
O=c1[nH]cc(F)c(=O)[nH]1 [5FU, 5-fluorouracil] | extremely rare | less than 25% | – | – | – | – | – | – | – | – | – | – | – | – | – | – | – | –
CCc1c2c(nc3ccc(OC(=O)N4CCC(N5CCCCC5)CC4)cc13)-c1cc3c(c(=O)n1C2)COC(=O)[C@]3(O)CC [Irinotecan, (4S)-4,11-diethyl-4-hydroxy-9-[(4-piperidino-piperidino)carbonyl-oxy]1H-pyranol-[3′,4′:6,7]indolizinol[1,2-b]quinoline-3,14-(4H,12H)dione] | – | – | 23.7 | 2.3 | 75.7 | 12.2 | 29.9 | 2.0 | 87.8 | 30.6 | 86.2 | 66.8 | 12.5 | 30-40% | less than one percent | 6.4 | less than 20% | uncommon
